Experimental data from patent publication US20250223366A1, “MONOCLONAL ANTIBODIES AND BISPECIFIC ANTIBODY AGAINST C-MET” (BIOTHEUS INC., priority 2022, published 2025).

Key:
HepG2 cells = test: Blocking HGF-induced migration of HepG2 cells; format: cell-based, human; details: HGF in lower chamber, 3 days, FIG. 6
Excerpt: HepG2 cells were human liver cancer cells and purchased from ATCC, which were capable of expressing EGFR and c-Met receptors. When HGF was placed in the lower chamber culture medium, it would induce HepG2 cells in the upper chamber to migrate to the lower chamber through the filter membrane. The specific experimental method was as follows: HepG2 cells were expanded to an appropriate density, the cells were digested and detached from the cell culture flask, resuspended to 1×10^6 cells/ml, and added to the upper chamber of the 24-well cell migration plate (purchased from Corning) at 100 μL per well for later use. The bispecific antibody was diluted to 200 nM with MEM, added to the upper chamber of the 24-well cell migration plate at 100 μL per well, and incubated at 25° C. for 60 min. h.HGF (purchased from R&D) was diluted to 50 ng/mL with MEM, added to the lower chamber of the cell migration plate at 500 μL/well, and cultured for 3 days at 37° C. and 5% carbon dioxide. The non-migrated cells on the upper chamber membrane were gently wiped with cotton swabs, the cells that migrated to the lower chamber membrane were lysed with Cell titer glo (purchased from Promega), and the chemiluminescent signal was collected with an microplate plate reader.

[1] = tested on: H1975-HGF human lung cancer cells; test: Experimental Model 5: H1975-HGF tumor-bearing model, combination with Osimertinib; format: in vivo, CB-17 SCID mice; details: antibody Day 16 and Day 18: 3 mg/kg, Osimertinib Days 16 to 22: 3 mg/kg/day, last measured 28 days after inoculation
Excerpt: In this experiment, the in vivo efficacy of the bispecific antibody of the present application in combination with an small molecule EGFR inhibitor (e.g., Osimertinib) was detected. Using the lentiviral transfection method, the cDNA encoding human HGF (hepatocyte growth factor) (the sequence was from UniProtKB P14210) was constructed on the pLVX-neu vector by General Biol, and the plasmid was transfected into H1975 cells to construct a cell line ([…]) with stable expression of HGF. In this experiment, CB-17 SCID mice were subcutaneously inoculated with H1975-HGF human lung cancer cells to establish a tumor-bearing model and determine the anti-tumor effect of the anti-EGFRxc-Met bispecific antibody. The model construction process was the same as that of Experimental Model 2. The mice were divided into groups according to the grouping and dosing scheme in Table 10 and the corresponding doses of antibodies were injected.
The tumor volume and body weight of mice were measured 2 to 3 times a week. The body weight and tumor volume of mice were measured for the last time 28 days after the tumor cell inoculation, and then the mice were euthanized.

[2] = tested on: H292 human lung cancer tumor cells; test: Experimental Model 4: H292 tumor-bearing model, comparison with Rybrevant; format: in vivo, CB-17 SCID mice; details: H292, single dose Day 14: 10 mg/kg; last measured 27 days after inoculation
Excerpt: In this experiment, CB-17 SCID mice were subcutaneously inoculated with H292 human lung cancer tumor cells to establish a tumor-bearing model, and the anti-EGFRxc-Met bispecific antibody was compared with the commercially available EGFRxc-Met bispecific antibody Rybrevant (purchased from Johnson & Johnson, batch number: LHS3G02) (this antibody had been published at various oncology conferences and was also known as JNJ-6372) in terms of anti-tumor effect. The mouse model establishment process was the same as that of Experimental Model 1. The groups were divided according to the grouping and dosing scheme in Table 9 and the corresponding doses of antibodies were injected.
The tumor volume and body weight of the mice were measured 2 to 3 times a week. The weight and tumor volume of the mice were measured for the last time 27 days after the inoculation of tumor cells, and the mice were euthanized.

[3] = target: T1, EGFR which expressed on H292 cells (Homo sapiens, UniProt P00533); test: Blocking EGF-EGFR interaction on H292 cells (flow cytometry, Biotin-h.EGF); format: cell-based; details: negative controls, FIG. 3
T1 construct: H292 cells, which were human non-small cell lung cancer cells purchased from Procell, were capable of expressing EGFR and c-Met receptors; host or cells: H292 cells
Method: H292 cells, which were human non-small cell lung cancer cells purchased from Procell, were capable of expressing EGFR and c-Met receptors. H292 cells were expanded to a suitable density, digested and detached from the cell culture flask, resuspended to 1×10^6 cells/ml, added to a 96-well flow plate, 100 μL per well, and centrifuged for later use. The antibody to be tested was subjected to 3-fold dilution with PBS, starting from 200 nM, and the diluted sample was added to the 96-well flow plate with cells, 100 μL/well, and incubated at 25° C. for 60 min. Biotin-h.EGF was diluted to 100 nM with PBS, added to the 96-well flow plate with cells, 100 μL/well, and incubated at 25° C. for 60 min. then washed twice with PBS. Streptavidin-FITC (purchased from Jackson) was diluted 100 times with PBS and added to the plate, 100 µL/well, incubated at 4° C. for 30 min, and washed twice with PBS. 100 μL/well of PBS was added to resuspend the cells, then the cells were detected on a CytoFlex (Beckman) flow cytometer, and the corresponding MFI was calculated.

A375/H1975/HCC827 cells = test: ADCC induction, CD16a-NFAT-Luc Jurkat reporter gene cells; format: cell-based, human; details: A375, H1975, HCC827 target cells, CD16a-NFAT-Luc Jurkat effector cells, 6 h, FIG. 9
Excerpt: A375 cells were human malignant melanoma cells and purchased from Addexbio, which were capable of expressing EGFR and c-Met receptors. H1975 cells were human lung adenocarcinoma cells and purchased from Addexbio, which were capable of highly expressing EGFR and c-Met receptors. HCC827 cells were human non-small cell lung cancer cells and purchased from the Cell Bank of the Chinese Academy of Sciences, which were capable of highly expressing EGFR and c-Met receptors. […]

“anti-EGFR single-arm antibody: anti-EGFR single-arm antibody prepared based on the control antibody Amivantamab; heavy chain SEQ ID NO: 42, light chain SEQ ID NO: 4 [reference compound]” was tested, and the “blocking of HGF-induced migration of HepG2 cells” value (HepG2 cells) was “could not block”.
Compound C=CC(=O)Nc1cc(Nc2nccc(-c3cn(C)c4ccccc34)n2)c(OC)cc1N(C)CCN(C)C [Osimertinib] has a TGI [1] of 38.9%.
Work on “Rybrevant: commercially available EGFRxc-Met bispecific antibody, purchased from Johnson & Johnson, batch number LHS3G02 [reference compound]” yielded a TGI [1] of 44.1% and a TGI [2] of 67.9%.
In the case of “anti-MET single-arm antibody: anti-c-Met single-arm molecule constructed based on the control molecule Amivantamab; heavy chain SEQ ID NO: 43, light chain SEQ ID NO: 8 [reference compound]”, the “blocking interaction between EGF and EGFR” value [3] is reported as “could not block”.
“Amivantamab analog: control anti-EGFRxcMet bispecific antibody with anti-cMet arm of WO2011/110642A2, obtained in normal host cells [reference compound]” was tested, and the ADCC effect (A375/H1975/HCC827 cells) was “induced ADCC effects”.
